“Also recorded” adds a separate entry of the source. Bridge positions count the residues as written; N and C are the ends. Square brackets hold non-standard residues; d marks the D form. Ends that are not written are not given here. Peptide text beside a SMILES is read from it. R8 = C=CCCCCCC[C@@](C)(N)C(=O)O; S5 = C=CCCC[C@](C)(N)C(=O)O; Sar = CNCC(=O)O

Results on ten molecules are retold here after patent publication US20230272012A1, “PEPTIDES AND METHODS OF USE” (REALTA LIFE SCIENCES, INC., priority 2020, published 2023).

A short description of data set [1]: Total Antioxidant Capacity (TAC) assay. The settings on record: highest peptide concentration 1.5 mM. How it is done:
As previously reported, the TAC (Total Antioxidant Capacity) Assay (Cell Biolabs, Inc, San Diego, Calif.) was used to measure the antioxidant capacity of the PIC1 variants based on the reduction of copper (II) to copper (I). The kit protocol was performed per the manufacturer's recommendations.
The antioxidant properties for the PIC1 variants were evaluated in a Total Antioxidant Capacity (TAC) assay, as previously reported. Total antioxidant activity over a range of peptide concentrations were determined for the stapled and the D-amino acid peptides based on the PA-I8Sar and PA-C9Sar backbones (FIG. 8A-8D), with the activity of the highest peptide concentration reported (1.5 mM) (FIGS. 4A and B, respectively). […] For the D-amino acid variants, there was variation in the amount of antioxidant activity with the peptides having similar, slightly lower and slightly higher levels of total antioxidant capacity. In contrast, stapled peptides (PA-0135 through -0140) as well as combination of stapled and D-amino acid peptides had reduced total antioxidant capacity (FIG. 4A).

Data set [2] has as its system antibody-initiated complement activation (human O sera and AB red blood cells). Kind of data set: ABO incompatibility hemolytic assay of complement activity (CH50-type). The data set is classed as cell-based. Particulars: peptide 0.8 mg/ml (~0.5 mM). The procedure: (§1) FIG. 1A-1B show PIC1 peptides' inhibition of complement activation in an ABO incompatibility assay. […] Inhibition of ABO incompatibility hemolysis in a CH50-type assay. Peptides are at a final concentration of 0.5 mM. Values are represented as a percent of the positive control, which consists of human O sera and AB red blood cells in GVBS^++ buffer. Data are the means of n=3 independent experiments±SEM.
(§2) For hemolytic complement assays, human red blood cells (RBCs) from type AB donors were purified, washed, and standardized to 1.0×10^9 cells/ml, as previously described. Human sera from type O donors at a 15% final concentration was combined with 0.5 mM of the peptides and the volume was brought up to 0.2 ml with GVBS^++ and 5.0×10^7 RBCs. The samples were incubated for 1 hour at 37° C. and then spun at 3,000 rpm for 5 minutes and the supernatant was collected and read at 412 nm. Values are represented as a percent of the positive control, which consists of human O sera and AB red blood cells in GVBS^++ buffer.
(§3) To assess the extent to which the peptide variants inhibit antibody-initiated complement activation, an ABO incompatibility ex vivo assay was utilized in which purified erythrocytes from a ‘type AB+’ donor are incubated with sera from a ‘type O’ subject containing anti-A and anti-B antibodies. Peptides were tested at a concentration of 0.8 mg/ml (˜0.5 mM). […] D-amino acid variants PA-0127 and PA-0133 decreased ABO hemolysis by 20% (P value=0.083) and 25% (P value=0.076), respectively. […]

Assay in data set [3]: as above
The data set is classed as cell-based, human. The settings on record: human; peptide 0.8 mg/ml (~0.5 mM); read-out: decrease of ABO hemolysis compared to PA-C9Sar. How it is done:
as §1, §2, §3

Another data set concerns the target T1, MPO (Homo sapiens, UniProt P05164).
T1 construct: purchased Lee BioSolutions (Maryland Heights, Mo.)
T1 sequence (P05164 49-745): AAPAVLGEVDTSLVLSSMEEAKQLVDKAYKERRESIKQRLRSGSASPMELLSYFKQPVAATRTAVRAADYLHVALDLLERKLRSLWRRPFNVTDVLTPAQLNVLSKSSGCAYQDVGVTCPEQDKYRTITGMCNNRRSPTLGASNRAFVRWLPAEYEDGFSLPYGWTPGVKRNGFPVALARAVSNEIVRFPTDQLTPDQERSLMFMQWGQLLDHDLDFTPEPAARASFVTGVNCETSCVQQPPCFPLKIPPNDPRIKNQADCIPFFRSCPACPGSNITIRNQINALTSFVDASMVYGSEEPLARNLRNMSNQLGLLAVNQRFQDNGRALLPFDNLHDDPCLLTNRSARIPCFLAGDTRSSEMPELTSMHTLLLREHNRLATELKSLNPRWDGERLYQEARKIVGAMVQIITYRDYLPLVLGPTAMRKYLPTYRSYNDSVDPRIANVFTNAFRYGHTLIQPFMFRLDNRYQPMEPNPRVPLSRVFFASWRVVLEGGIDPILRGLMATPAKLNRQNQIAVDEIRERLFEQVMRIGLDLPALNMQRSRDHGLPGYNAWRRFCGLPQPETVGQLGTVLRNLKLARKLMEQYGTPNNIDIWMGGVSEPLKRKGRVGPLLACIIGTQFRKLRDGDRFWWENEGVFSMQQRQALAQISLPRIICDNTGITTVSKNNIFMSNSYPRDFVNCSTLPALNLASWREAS
Kind of data set: MPO activity assay (TMB oxidation). It counts as biochemical. Particulars: half-maximal values from dose-response curves. How it is done: The MPO activity assay was performed as previously described. Briefly, peptides were diluted to 12 mg/ml and serially titrated in a 96 well plate at a volume of 0.02 ml. MPO was diluted to 20 μg/ml and 0.02 ml was added to the titrated peptides. TMB (3,30,5,50-tetramethylbenzidine) (0.1 ml) was added to each well for 2 minutes, followed by 0.1 ml of 2.5 N H2SO4 for another 2 minutes, and then read on a 96 well plate reader (BioTek) at 450 nm.
The inventors also assessed the ability of RLS-0127* and RLS-0133* to inhibit MPO activity as determined by inhibition of oxidation of TMB in a plate-based assay. […] Additionally, the inventors assessed the ability of RLS-0127* and RLS-0133* to bind C1q in a plate-based assay in which C1q is coated on the plate and increasing amounts of the peptides are added, followed by primary antibody to the peptides and secondary antibody conjugated to HRP. The plate was then incubated with TMB to give a […] signal that is detected at a wavelength of 450 nm in a plate reader.

In the next data set the target is T2, PD-1/PD-L1 interaction (Homo sapiens, UniProt Q15116+Q9NZQ7).
T2 construct: host or cells: PD-1 effector cells; PD-L1 aAPC/CHO-K1 cells
T2 sequence (Q15116 25-288): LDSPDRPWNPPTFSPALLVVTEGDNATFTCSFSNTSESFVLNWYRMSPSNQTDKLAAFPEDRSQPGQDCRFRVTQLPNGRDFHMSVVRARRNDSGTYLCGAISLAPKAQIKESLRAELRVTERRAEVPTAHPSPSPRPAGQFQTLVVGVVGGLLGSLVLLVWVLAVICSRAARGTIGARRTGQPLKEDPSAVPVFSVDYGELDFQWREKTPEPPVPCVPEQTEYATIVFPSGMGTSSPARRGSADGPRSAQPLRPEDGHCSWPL
T2 sequence (Q9NZQ7 19-290): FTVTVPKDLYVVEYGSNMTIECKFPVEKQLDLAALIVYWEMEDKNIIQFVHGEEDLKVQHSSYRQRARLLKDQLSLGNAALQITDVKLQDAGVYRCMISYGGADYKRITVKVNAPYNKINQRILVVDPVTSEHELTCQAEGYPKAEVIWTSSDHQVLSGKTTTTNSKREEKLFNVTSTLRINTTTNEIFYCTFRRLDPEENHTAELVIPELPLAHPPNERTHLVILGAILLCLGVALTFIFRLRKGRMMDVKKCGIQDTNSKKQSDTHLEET
Kind of data set: PD-1/PD-L1 Blockade Bioassay (Promega). The data set is classed as cell-based. Particulars: increasing peptide concentrations. How it is done:
PD-1 effector cells were incubated with PD1-L1 aAPC cells in the absence or presence of increasing concentrations of anti-PD-1 antibody (positive control) and select PIC1 peptides. Luminescence was detected in luminometer plate reader.
To assess if PIC1 peptides could block PD-1 inhibitory activity in a cell-based assay, select peptides were screened in the PD-1/PD-L1 Blockade Bioassay (Promega). The PD-1/PD-L1 Blockade Bioassay is a biologically relevant MOA-based assay that can be used to measure the potency and stability of antibodies and other biologics designed to block the PD-1/PD-L1 interaction. This bioluminescent cell-based assay is used to measure the potency and stability of molecules targeting PD-1 and consists of two genetically engineered cell lines: aAPC/CHO-K1 Cells are CHO-K1 cells with an engineered cell surface protein designed to activate cognate TCRs in an antigen-independent manner. When the two cell types are co-cultured, the PD-1/PD-L1 interaction inhibits TCR signaling and NFAT-mediated luciferase activity. Addition of an inhibitory molecule that blocks either PD-1 or PD-L1 releases the inhibitory signal and results in TCR signaling and NFAT-mediated luciferase activity.

Data set [4] deals with purified human Pan T-cells. Kind of data set: T-cell exhaustion protocol (Dynabeads re-stimulation). It counts as cell-based. The settings on record: peptides 2 mg/ml at each stimulation; supernatant ELISA. How it is done: Purified human pan-T-cells were subject to stimulation with Dynabeads every 48 hours over the period of 8 days with cells also receiving PIC1 peptides (2 mg/ml) at each stimulation. Cells not receiving Dynabeads were run in parallel to assess background levels of Caspase 3/7 signal. At the eighth day, cells were harvested and the levels of Caspase 3/7 determined by ELISA.
Purified human pan-T-cells were subject to stimulation with Dynabeads every 48 hours over the period of 8 days with cells also receiving PIC1 peptides (2 mg/ml) at each stimulation. Cell supernatants were collected at each stimulation and levels of IL-2 and IFN-gamma assayed by ELISA.
T-cell exhaustion is a form of T-cell dysfunction that occurs in cancer. It is defined by poor effector function, reduction in cytokine release (e.g., IL-2, TNF-alpha, IFN-gamma), sustained expression of inhibitory receptors (e.g., PD-1, LAG-3, CD244, CD160) with the progressive loss of effector function due to overstimulation. Exhaustion prevents optimal control of tumor growth. Exhausted T cells are prevalent in the tumor microenvironment (TME) and can lead to T-cell apoptosis. T-cell exhaustion is reversible, and pharmaceutical inhibition of T-cell exhaustion has been considered a promising strategy by many cancer researchers. To ascertain if PIC1 peptides could reverse T-cell exhaustion and increase T cell viability and effector function, a T-cell exhaustion protocol was developed. To induce T-cell exhaustion, purified human Pan T-cells were stimulated with T-Activator CD3/CD28 Dynabeads and cells are washed and re-stimulated every 48 hours. PIC1 peptides were added to the cells after each stimulation with Dynabeads. After three to four stimulations cells were harvested for readouts which consisted of assessing T-cell apoptosis by measuring Caspase 3/7 levels and production of cytokines IL-2 and IFN-gamma which is indicative of T-cell functionality. […] To further evaluate if PIC1 peptides could restore T-cell functionality in cells that have undergone the exhaustion protocol, the inventors next assessed production of cytokines IL-2 and IFN-gamma. Supernatants from the cells after each stimulation were collected and the cytokines measured by ELISA. […] The lower level of IFN-gamma signal compared to IL-2 was consistently seen in this assay.

Consider `CC[C@H](C)[C@H](N)C(=O)N[C@@H](C)C(=O)N[C@@H](CC(C)C)C(=O)N[C@H](C(=O)N[C@@H](CC(C)C)C(=O)N[C@@H](CCC(=O)O)C(=O)N1CCC[C@H]1C(=O)N(C)CC(=O)N[C@@H](CS)C(=O)N[C@@H](CS)C(=O)N[C@@]1(C)CCCC=CCCC[C@@](C)(C(=O)O)NC(=O)[C@H](C)NC(=O)[C@H](CCCNC(=N)N)NC(=O)[C@H](CCC(=O)O)NC1=O)[C@@H](C)CC` [PA-0116, IALILEP(Sar)CCS5ERAS5] (H-IALILEP[Sar]CC[S5]ERA[S5]-OH; staple 11-15), for which, in data set [1], the “total antioxidant capacity compared with PA-I8Sar” value was “increased activity; also recorded: superior antioxidant activity”.
`CC[C@H](C)[C@H](N)C(=O)N[C@@H](C)C(=O)N[C@@H](CC(C)C)C(=O)N[C@H](C(=O)N[C@@H](CC(C)C)C(=O)N[C@@H](CCC(=O)O)C(=O)N1CCC[C@H]1C(=O)N[C@H](C(=O)N(C)CC(=O)N[C@@H](CS)C(=O)N[C@@]1(C)CCCC=CCCC[C@@](C)(C(=O)O)NC(=O)[C@H](C)NC(=O)[C@H](CCCNC(=N)N)NC(=O)[C@H](CCC(=O)O)NC1=O)[C@@H](C)CC)[C@@H](C)CC` [PA-0155] (H-IALILEPI[Sar]C[S5]ERA[S5]-OH; staple 11-15): the “inhibition of complement in the hemolytic assay compared to PA-C9Sar” value in data set [2] was “significant increase in complement inhibitory activity”. The decrease in ABO hemolysis compared to reference peptide at 1 h in data set [3] came out at 64%. Also, on MPO, the “MPO inhibition compared with PA-C9Sar” value is listed as “decreased MPO inhibition”. Moreover, the “inhibition of PD-1/PD-L1 inhibitory signaling (luminescence)” value on PD-1/PD-L1 interaction is listed as “did not show PD-1/PD-L1 inhibitory activity”.
For the molecule “IALILEPdI(Sar)CQERAA (IALILEPIXCQERAA; D-isoleucine, sarcosine; MOD_RES (8)..(8) D-amino acid; MOD_RES (9)..(9) Sarcosine) [PA-0163]”, the “MPO inhibition compared with PA-C9Sar” value with MPO is listed as “decreased MPO inhibition”.
For “IALILEdPI(Sar)CQERAA (IALILEPIXCQERAA; D-proline, sarcosine; MOD_RES (7)..(7) D-amino acid; MOD_RES (9)..(9) Sarcosine) [PA-0162]”, in data set [2], the “inhibition of complement in the hemolytic assay compared to PA-C9Sar” value is listed as “slightly less well”. In addition, the “IL-2 signal at stimulation 2” value in data set [4] is listed as “showed an IL-2 signal at stimulation 2”. The “inhibition of PD-1/PD-L1 inhibitory signaling (luminescence)” value in the data set with PD-1/PD-L1 interaction is reported as “did not show PD-1/PD-L1 inhibitory activity”.
“IALILR8P(Sar)CCQES5AA (IALIL[R8]P[Sar]CCQE[S5]AA; bridges not given here; also: R8/S5 6-13 may or may not be stapled) [PA-0114]”: in data set [1], the “total antioxidant capacity compared with PA-I8Sar” value is “reduction in total antioxidant capacity”.
In the case of “IALIR8EPI(Sar)CQS5RAA (IALI[R8]EPI[Sar]CQ[S5]RAA; staple 5-12) [PA-0148]”, the “MPO inhibition compared with PA-C9Sar” value with MPO is given as “decreased MPO inhibition”.
As to “IALIS5EP(Sar)S5CQERAA (IALI[S5]EP[Sar][S5]CQERAA; bridges not given here; also: S5 5-9 may or may not be stapled) [PA-0140]”, the “inhibition of ABO incompatible hemolysis compared to PA-I8Sar” value in data set [2] is “lesser extent”. Also, in the data set with MPO, the “MPO inhibition compared with PA-I8Sar” value was “reduced inhibition of MPO activity”.
On to “IALR8LEPI(Sar)CS5ERAA (IAL[R8]LEPI[Sar]C[S5]ERAA; bridges not given here; also: R8/S5 4-11 may or may not be stapled) [PA-0147]”, for which the “total antioxidant capacity compared with PA-C9Sar” value in data set [1] was “maintained similar activity”.
In the case of “IAS5ILES5I(Sar)CQERAA (IA[S5]ILE[S5]I[Sar]CQERAA; staple 3-7) [PA-0153]”, in the data set with MPO, the “MPO inhibition compared with PA-C9Sar” value is on record as “decreased MPO inhibition”.
As for “S5ALIS5EPI(Sar)CQERAA ([S5]ALI[S5]EPI[Sar]CQERAA; staple 1-5) [PA-0151]”, the “MPO inhibition compared with PA-C9Sar” value with MPO is on record as “decreased MPO inhibition”.
